{
  "source": "patent US20230263825A1",
  "about": "“ANTI-CANCER ACTIVITY OF PERBORATE SALTS” (priority 2020, published 2023)",
  "key": {"[1]": {"system": "PSN-1 (a pancreatic adenocarcinoma cell line)", "assay": "MTS cytotoxicity assay, single agents and combinations", "format": "cell-based", "conditions": "Homo sapiens, PSN1, PSN-1, chemotherapeutic agent alone; read-out: EC50 concentration", "protocol": "(§1) An MTS reduction (MTS (3-(4,5-dimethylthiazol-2-yl)-5-(3-carboxymethoxyphenyl)-2-(4-sulfophenyl)-2H-tetrazolium) assay) was conducted to analyze the cytotoxic effect of sodium perborate tetrahydrate on lung, chordoma and pancreatic cells and normal cells. In this method, cell viability is determined via the activity of mitochondrial dehydrogenase enzyme, which reduces the tetrazolium dye MTS to its […] formazan (absorbance maximum of 490 nm in PBS).\n(§2) Cells were counted and seeded in 96-well culture dishes. […] The positive control comprised 20% Dimethyl Sulfoxide and the negative control comprised complete growth media. Seeding densities were as follows: DMS114: 20.000 cells/well; MRC5: 5.000 cells/well; CH22: 2.000 cells/well; JHC7, UM-Chor1, MUG-Chor1, UCH1 and NPH: 5.000 cells/well; PSN1: 10.000 cells/well; BxPC3 and ASPC: 7.500 cells/well. The effect of sodium perborate tetrahydrate on cell viability was measured as follows. The cell culture medium was discarded and 100 μl of MTS solution (10% glucose solution and 1% MTS-PMS solution in PBS) was added into each well. After 1 hour incubation in a humidified incubator, an absorbance reading was taken to determine mitochondrial dehydrogenase activity and cell survival was calculated relative to the negative control."}, "[2]": {"system": "DMS114 cells (small cell lung cancer cells)", "assay": "MTS cytotoxicity assay", "format": "cell-based", "conditions": "DMS114", "protocol": "as §1, §2"}},
  "data": [
    {"compound": "O=c1[nH]cc(F)c(=O)[nH]1", "note": "[5-Fluorouracil, reference compound]", "values": [
      {"measurement": "EC50", "setting": "[1]", "value": 13, "unit": "µM"}
    ]},
    {"compound": "OB(O)O", "note": "[boric acid, reference compound]", "values": [
      {"measurement": "EC50", "setting": "[2]; Homo sapiens, DMS-114, read-out: EC50 (dose that kills 50% of cells)", "value": 1000, "unit": "µg/mL"}
    ]},
    {"compound": "sodium pentaborate pentahydrate [reference compound]", "values": [
      {"measurement": "EC50 (dose that kills 50% of cells)", "setting": "[2]", "value": "1,250 μg/mL"}
    ]}
  ]
}
